# In patent US20240109873A1, “ANTAGONISTS OF THE MUSCARINIC ACETYLCHOLINE RECEPTOR M4” (Vanderbilt University, priority 2020, published 2024):
# Target: T1, human mAChR M4 (Homo sapiens, UniProt P08173)
# T1 construct: expressed in transfected cells; host or cells: CHO-K1 (ATCC), co-transfected with chimeric G protein Gqi5
# T1 sequence (P08173 1-479): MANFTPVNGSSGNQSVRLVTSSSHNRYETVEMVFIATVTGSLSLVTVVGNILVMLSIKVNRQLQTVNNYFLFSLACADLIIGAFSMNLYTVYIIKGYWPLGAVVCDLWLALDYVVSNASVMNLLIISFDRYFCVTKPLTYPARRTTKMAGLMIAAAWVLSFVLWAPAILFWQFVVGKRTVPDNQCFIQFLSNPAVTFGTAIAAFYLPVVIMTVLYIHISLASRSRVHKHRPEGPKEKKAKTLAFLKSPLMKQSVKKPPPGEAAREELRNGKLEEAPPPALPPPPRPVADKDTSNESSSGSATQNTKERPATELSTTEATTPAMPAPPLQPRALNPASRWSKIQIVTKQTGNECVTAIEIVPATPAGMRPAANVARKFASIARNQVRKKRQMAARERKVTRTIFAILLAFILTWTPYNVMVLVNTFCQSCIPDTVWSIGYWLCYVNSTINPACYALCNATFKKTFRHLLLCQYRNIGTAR
# Experiment: mAChR M4 cell-based functional assay (calcium flux, antagonism of EC80 acetylcholine response, M4/Gqi5/CHO-K1 cells)
# Conditions: for remaining activity at 30 µM: CHO-K1, % ACh maximum at 30 μM, read-out: Human M4 Emin; for IC50: decrease of the response elicited by an EC80 concentration of acetylcholine, CHO-K1 cells, Gqi5
# Description: Human or rat M4 cDNA, along with the chimeric G protein Gqi5, were transfected into Chinese hamster ovary (CHO-K1) cells purchased from the American Type Culture Collection using Lipofectamine2000. M4/Gqi5/CHO cells were grown in Ham's F-12 medium containing 10% heat-inactivated fetal bovine serum (FBS), 20 mM HEPES, 500 μg/mL G418 sulfate, and 200 μg/mL Hygromycin B.
# For high throughput measurement of agonist-evoked increases in intracellular calcium, CHO-K1 cells stably expressing muscarinic receptors were plated in growth medium lacking G418 and hygromycin at 15,000 cells/20 μL/well in Greiner 384-well black-walled, tissue culture (TC)-treated, clear-bottom plates (VWR). Cells were incubated overnight at 37° C. and 5% CO2. The next day, cells were washed using an ELX 405 (BioTek) with assay buffer; the final volume was then aspirated to 20 μL. Next, 20 μL of a 2.3 μM stock of Fluo-4/acetoxymethyl ester (Invitrogen, Carlsbad, CA), prepared as a 2.3 mM stock in DMSO and mixed in a 1:1 ratio with 10% (w/v) Pluronic F-127 and diluted in assay buffer, was added to the wells and the cell plates were incubated for 50 min at 37° C. and 5% CO2. Dye was removed by washing with the ELX 405 and the final volume was aspirated to 20 μL. Compound master plates were formatted in a 10-point concentration-response curve (CRC) format (1:3 dilutions) in 100% DMSO with a starting concentration of 10 or 1 mM using a BRAVO liquid handler (Agilent). Test compound CRCs were then transferred to daughter plates (240 nL) using the Echo acoustic plate reformatter (Labcyte, Sunnyvale, CA) and then diluted into assay buffer (40 μL) to a 2× stock using a Thermo Fisher Combi (Thermo Fisher Scientific, Waltham, MA).
# Calcium flux was measured using the Functional Drug Screening System (FDSS) 6000 or 7000 (Hamamatsu Corporation, Tokyo, Japan) as an increase in the fluorescent static ratio. Compounds were applied to cells (20 μL, 2×) using the automated system of the FDSS at 2 seconds into the protocol and the data were collected at 1 Hz. At 143 s, 10 μL of an EC20 concentration of the muscarinic receptor agonist acetylcholine was added (5×), followed by the addition of 12 μL of an EC80 concentration of acetylcholine at the 268 s time point (5×). Agonist activity was analyzed as a concentration-dependent increase in calcium mobilization upon compound addition. Positive allosteric modulator activity was analyzed as a concentration-dependent increase in the EC20 acetylcholine response. Antagonist activity was analyzed as a concentration-dependent decrease in the EC80 acetylcholine response; for the purposes of the tables herein, an IC50 (inhibitory concentration 50) was calculated as a concentration-dependent decrease of the response elicited by an EC80 concentration of acetylcholine. Concentration-response curves were generated using a four-parameter logistical equation in XLFit curve fitting software (IDBS, Bridgewater, NJ) for Excel (Microsoft, Redmond, WA) or Prism (GraphPad Software, Inc., San Diego, CA) or the Dotmatics software platform (Dotmatics, Bishop's Stortford, UK). […]
# Compounds were synthesized as described above. Activity (IC50 and Emin) was determined in the mAChR M4 cell-based functional assay as described above and the data are shown in Table 2.
remaining activity at 30 µM [%],IC50 [nM],Compound
3,0.74,"FC(F)(F)c1ncccc1-c1ccc(N[C@H]2C[C@@H]3CN(CC4CCOCC4)C[C@@H]3C2)nn1 [Compound 40, (3aR,5s,6aS)-2-((tetrahydro-2H-pyran-4-yl)methyl)-N-(6-(2-(trifluoromethyl)pyridin-3-yl)pyridazin-3-yl)octahydrocyclopenta[c]pyrrol-5-amine]"
2,1.3,"[2H]C([2H])(CC1CCOCC1)N1C[C@H]2C[C@H](Nc3ccc(-c4cccnc4C(F)(F)F)nn3)C[C@H]2C1 [Compound 42, (3aR,5s,6aS)-2-(2-(tetrahydro-2H-pyran-4-yl)ethyl-1,1-d2)-N-(6-(2-(trifluoromethyl)pyridin-3-yl)pyridazin-3-yl)octahydrocyclopenta[c]pyrrol-5-amine]"
2,8.7,"[2H]C([2H])(C1CCOCC1)N1C[C@H]2C[C@H](Nc3ccc(-c4cccnc4C(F)(F)F)nc3)C[C@H]2C1 [Compound 41, (3aR,5s,6aS)-2-((tetrahydro-2H-pyran-4-yl)methyl-d2)-N-(2′-(trifluoromethyl)-[2,3′-bipyridin]-5-yl)octahydrocyclopenta[c]pyrrol-5-amine]"
2,11,"[2H]C([2H])(C1CCOCC1(C)C)N1C[C@H]2C[C@H](Nc3nnc(-c4cnccc4C(F)(F)F)cc3OC)C[C@H]2C1 (stereo partly drawn) [Compound 21, (3aR,5s,6aS)-2-((3,3-dimethyltetrahydro-2H-pyran-4-yl)methyl-d2)-N-(4-methoxy-6-(4-(trifluoromethyl)pyridin-3-yl)pyridazin-3-yl)octahydrocyclopenta[c]pyrrol-5-amine]"
6,1.3,"[2H]C([2H])(C1CCOCC1)N1C[C@H]2C[C@H](Nc3nnc(-c4cnccc4C(F)(F)F)cc3C(F)F)C[C@H]2C1 [Compound 26, (3aR,5s,6aS)-N-(4-(difluoromethyl)-6-(4-(trifluoromethyl)pyridin-3-yl)pyridazin-3-yl)-2-((tetrahydro-2H-pyran-4-yl)methyl-d2)octahydrocyclopenta[c]pyrrol-5-amine]"
2,0.69,"[2H]C([2H])(C1CC2(CC2)CO1)N1C[C@H]2C[C@H](Nc3ccc(-c4cccnc4C(F)(F)F)nn3)C[C@H]2C1 (stereo partly drawn) [Compound 54, (3aR,Ss,6aS)-2-((5-oxaspiro[2.4]heptan-6-yl)methyl-d2)-N-(6-(2-(trifluoromethyl)pyridin-3-yl)pyridazin-3-yl)octahydrocyclopenta[c]pyrrol-5-amine]"
6,35,"[2H]C([2H])([C@H]1CCCOC1)N1C[C@H]2C[C@H](Nc3ccc(-c4cnccc4C(F)(F)F)nn3)C[C@H]2C1 [Compound 25, (3aR,5s,6aS)-2-(((R)-tetrahydro-2H-pyran-3-yl)methyl-d2)-N-(6-(4-(trifluoromethyl)pyridin-3-yl)pyridazin-3-yl)octahydrocyclopenta[c]pyrrol-5-amine]"
6,39,"[2H]C([2H])(N1C[C@H]2C[C@H](Nc3ccc(-c4cnccc4C(F)(F)F)nn3)C[C@H]2C1)C(F)(F)C1CCOCC1 [Compound 36, (3aR,5s,6aS)-2-(2,2-difluoro-2-(tetrahydro-2H-pyran-4-yl)ethyl-1,1-d2)-N-(6-(4-(trifluoromethyl)pyridin-3-yl)pyridazin-3-yl)octahydrocyclopenta[c]pyrrol-5-amine]"
2,4,"[2H]C([2H])([C@@H]1CCCOC1)N1C[C@H]2C[C@H](Nc3ccc(-c4cccnc4C(F)(F)F)nn3)C[C@H]2C1 [Compound 47, (3aR,5s,6aS)-2-(((S)-tetrahydro-2H-pyran-3-yl)methyl-d2)-N-(6-(2-(trifluoromethyl)pyridin-3-yl)pyridazin-3-yl)octahydrocyclopenta[c]pyrrol-5-amine]"
2,15,"[2H]C([2H])(N1C[C@H]2C[C@H](Nc3ccc(-c4cnccc4C(F)(F)F)nn3)C[C@H]2C1)C1(C)CCOCC1 [Compound 4, (3aR,5s,6aS)-2-((4-methyltetrahydro-2H-pyran-4-yl)methyl-d2)-N-(6-(4-(trifluoromethyl)pyridin-3-yl)pyridazin-3-yl)octahydrocyclopenta[c]pyrrol-5-amine]"
2,1.4,"[2H]C1([2H])CC(C([2H])([2H])N2C[C@H]3C[C@H](Nc4ccc(-c5cccnc5C(F)(F)F)nn4)C[C@H]3C2)CC([2H])([2H])O1 [Compound 44, (3aR,5s,6aS)-2-((tetrahydro-2H-pyran-4-yl-2,2,6,6-d4)methyl-d2)-N-(6-(2-(trifluoromethyl)pyridin-3-yl)pyridazin-3-yl)octahydrocyclopenta[c]pyrrol-5-amine]"
5,0.48,"[2H]C([2H])(C1CCOCC1)N1C[C@H]2C[C@H](Nc3ccc(-c4cccnc4C(F)F)nn3)C[C@H]2C1 [Compound 38, (3aR,5s,6aS)-N-(6-(2-(difluoromethyl)pyridin-3-yl)pyridazin-3-yl)-2-((tetrahydro-2H-pyran-4-yl)methyl-d2)octahydrocyclopenta[c]pyrrol-5-amine]"
2,1,"[2H]C([2H])(C1CCCOC1)N1C[C@H]2C[C@H](Nc3ccc(-c4cnccc4C(F)(F)F)nn3)C[C@H]2C1 (stereo partly drawn) [Compound 9, (3aR,5s,6aS)-2-((tetrahydro-2H-pyran-3-yl)methyl-d2)-N-(6-(4-(trifluoromethyl)pyridin-3-yl)pyridazin-3-yl)octahydrocyclopenta[c]pyrrol-5-amine]"
3,33,"[2H]C([2H])([C@@H]1COCCO1)N1C[C@H]2C[C@H](Nc3ccc(-c4cnccc4C(F)(F)F)nn3)C[C@H]2C1 [Compound 6, (3aR,5s,6aS)-2-(((R)-1,4-dioxan-2-yl)methyl-d2)-N-(6-(4-(trifluoromethyl)pyridin-3-yl)pyridazin-3-yl)octahydrocyclopenta[c]pyrrol-5-amine]"
2,21.7,"[2H]C([2H])([C@H]1CCCOC1)N1C[C@H]2C[C@H](Nc3ccc(-c4cccnc4C(F)(F)F)nn3)C[C@H]2C1 [Compound 46, (3aR,5s,6aS)-2-(((R)-tetrahydro-2H-pyran-3-yl)methyl-d2)-N-(6-(2-(trifluoromethyl)pyridin-3-yl)pyridazin-3-yl)octahydrocyclopenta[c]pyrrol-5-amine]"
1,0.88,"[2H]C([2H])(C1CCOCC1)N1C[C@H]2C[C@H](Nc3nnc(-c4cccnc4C(F)(F)F)cc3C)C[C@H]2C1 [Compound 50, (3aR,5s,6aS)-N-(4-methyl-6-(2-(trifluoromethyl)pyridin-3-yl)pyridazin-3-yl)-2-((tetrahydro-2H-pyran-4-yl)methyl-d2)octahydrocyclopenta[c]pyrrol-5-amine]"
